Results from patent publication US6864259B2, “Antibacterial agents” (Warner-Lambert Company, priority 2001, dated 2005).
Values after ≈ are worked out from the molar mass of the structure shown. Counter-ions that a name gives are not always drawn. Like-named read-outs stand apart in the source and are kept apart here.

Experiments:
[1] = molecular target: E. coli gyrase (Escherichia coli, UniProt P0AES4+P0AES6); assay: biochemical; settings: supercoiling of relaxed pBR322, 30 minutes at 37° C.
[2] = test system: E. coli MC 4100; assay: Test A antibacterial assay, standard microtitration (MIC); assay type: cell-based; settings: Escherichia coli, MC4100; Gram negative; read-out: Minimum Inhibitory Concentrations, E. coli MC 4100
Protocol: (§1) The compounds of the present invention were tested against an assortment of Gram-negative and Gram-positive organisms using standard microtitration techniques (Cohen, et al., Antimicrob. Agents Chemother., 1985;28:766; Heifetz, et al., Antimicrob. Agents Chemother., 1974;6:124). […]

[3] = test system: S. pyogenes C203; assay: as above; assay type: cell-based; settings: Streptococcus pyogenes, Gram positive, read-out: Minimum Inhibitory Concentrations, S. pyogenes C203
Protocol: as §1

[4] = test system: S. aureus 29213; assay: as above; assay type: cell-based; settings: Staphylococcus aureus, Gram positive, read-out: Minimum Inhibitory Concentrations, S. aureus 29213
Protocol: as §1

[5] = test system: E. coli Tol C; assay: as above; assay type: cell-based; settings: Escherichia coli, read-out: Minimum Inhibitory Concentrations, E. coli Tol C
Protocol: as §1

[6] = test system: E. coli B90; assay: as above; assay type: cell-based; settings: Escherichia coli, Gram negative, read-out: Minimum Inhibitory Concentrations, E. coli B90
Protocol: as §1

[7] = test system: E. faecalis RB1; assay: as above; assay type: cell-based; settings: Enterococcus faecalis, Gram positive, read-out: Minimum Inhibitory Concentrations, E. faecalis RB1
Protocol: as §1

[8] = test system: S. pyogenes; assay: In vivo median protective dose in mice given lethal systemic infections; settings: lethal systemic infection
[9] = test system: N. gonorrhoeae 2709; assay: Test C cross resistance antibacterial assay (MIC); assay type: cell-based; settings: Neisseria gonorrhoeae, 2709, read-out: Minimum Inhibitory Concentrations, N. g. 2709
[10] = test system: N. gonorrhoeae 2637; assay: Test C cross resistance antibacterial assay (MIC); assay type: cell-based, Neisseria gonorrhoeae
[11] = test system: S. aureus UC-76; assay: Test C cross resistance antibacterial assay (MIC); assay type: cell-based; settings: Staphylococcus aureus
Protocol: (§2) The compounds of the present invention were tested against an assortment of ciprofloxacin resistant E. coli and S. aureus organisms described below using standard microtitration techniques (Cohen, et al., Antimicrob. Agents Chemother., 1985;28:766; Heifetz, et al., Antimicrob. Agents Chemother., 1974;6:124).

[12] = test system: S. aureus 2552; assay: Test C cross resistance antibacterial assay (MIC); assay type: cell-based
Protocol: as §2

[13] = Neisseria gonorrhoeae, 2637, derivative of MS11, parent strain, read-out: Minimum Inhibitory Concentrations, N. g. 2637
[14] = UC76, wild type sensitive strain, read-out: Minimum Inhibitory Concentrations, S. aureus UC-76
[15] = Staphylococcus aureus, 2552, upregulated norA pump, read-out: Minimum Inhibitory Concentrations, S. aureus 2552

Chain of E. coli gyrase (P0AES4 whole entry, one chain of several): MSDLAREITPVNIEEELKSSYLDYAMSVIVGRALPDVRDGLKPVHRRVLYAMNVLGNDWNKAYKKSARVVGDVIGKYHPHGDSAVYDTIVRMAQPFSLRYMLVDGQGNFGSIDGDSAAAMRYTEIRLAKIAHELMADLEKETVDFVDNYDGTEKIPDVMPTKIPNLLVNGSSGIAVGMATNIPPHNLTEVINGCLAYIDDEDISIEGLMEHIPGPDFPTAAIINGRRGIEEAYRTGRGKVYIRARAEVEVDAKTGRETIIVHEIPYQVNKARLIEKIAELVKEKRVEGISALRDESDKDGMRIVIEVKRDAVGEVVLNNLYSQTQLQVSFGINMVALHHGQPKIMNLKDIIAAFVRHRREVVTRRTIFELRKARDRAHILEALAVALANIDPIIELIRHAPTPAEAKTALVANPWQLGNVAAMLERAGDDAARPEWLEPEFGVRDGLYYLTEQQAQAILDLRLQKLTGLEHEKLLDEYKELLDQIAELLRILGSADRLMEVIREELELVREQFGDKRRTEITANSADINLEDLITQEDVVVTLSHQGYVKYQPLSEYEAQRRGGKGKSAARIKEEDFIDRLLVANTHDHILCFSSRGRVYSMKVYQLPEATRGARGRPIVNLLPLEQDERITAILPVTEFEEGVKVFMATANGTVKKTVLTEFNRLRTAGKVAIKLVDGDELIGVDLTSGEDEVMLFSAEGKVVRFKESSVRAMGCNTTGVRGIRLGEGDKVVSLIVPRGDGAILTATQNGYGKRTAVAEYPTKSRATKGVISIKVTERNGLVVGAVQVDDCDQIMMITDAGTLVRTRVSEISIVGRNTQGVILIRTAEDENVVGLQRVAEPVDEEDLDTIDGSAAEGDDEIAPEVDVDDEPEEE

| Compound | IC50 [1] | MIC [2] | MIC [3] | MIC [4] | MIC [5] | MIC [6] | MIC [7] | In Vivo Median Protective Dose (PD50) in Mice (PO) [8] | MIC [9] | MIC [10, 13] | MIC [11, 14] | MIC [12, 15] | melting point | MIC ([10]; Neisseria gonorrhoeae, 2637, read-out: Minimum Inhibitory Concentrations, N. g. 2637) | MIC ([11]; UC76, read-out: Minimum Inhibitory Concentrations, S. aureus UC-76) | MIC ([12]; Staphylococcus aureus, 2552, read-out: Minimum Inhibitory Concentrations, S. aureus 2552) |
| --- | --- | --- | --- | --- | --- | --- | --- | --- | --- | --- | --- | --- | --- | --- | --- | --- |
| Cc1c(N2CC(C(C)N)C(C)(C)C2)c(F)cn2c(=O)n(N)c(=O)c(C3CC3)c12 (stereo not shown) [Compound 5c, 2-Amino-6-[4-(1-amino-ethyl)-3,3-dimethylpyrrolidin-1-yl]-4-cyclopropropyl-7-fluoro-5-methyl-pyrido[1,2-c]pyrimidine-1,3-dione, hydrochloride] | 700 nM | 16 µg/mL | 0.5 µg/mL | 2 µg/mL | 0.5 µg/mL | 2 µg/mL | 2 µg/mL | – | – | – | – | – | – | – | – | – |
| CN[C@@H](C)[C@@H]1CCN(c2c(F)cn3c(=O)n(N)c(=O)c(C4CC4)c3c2C)C1 [Compound 4f, 2-Amino-4-cyclopropyl-7-fluoro-5-methyl-6-[3-(1-methylaminoethyl)pyrrolidin-1-yl]pyrido[1,2-c]pyrimidine-1,3-dione] | 1000 nM | 2 µg/mL (≈ 5.33 µM) | 0.015 µg/mL (≈ 0.04 µM) | 0.25 µg/mL (≈ 0.666 µM) | 0.03 µg/mL (≈ 0.0799 µM) | 0.13 µg/mL (≈ 0.346 µM) | 0.06 µg/mL (≈ 0.16 µM) | 1.2 mg/kg | 0.5 µg/mL (≈ 1.33 µM) | 0.25 µg/mL (≈ 0.666 µM) | 0.06 µg/mL (≈ 0.16 µM) | 0.5 µg/mL (≈ 1.33 µM) | – | – | – | – |
| Cc1c(N2CC[C@@H](C3(N)CC3)C2)c(F)cn2c(=O)n(N)c(=O)c(C3CC3)c12 [Compound 4i, 2-Amino-6-[(R)-3-(1-aminocyclopropyl)pyrrolidin-1-yl]-4-cyclopropyl-7-fluoro-5-methylpyrido[1,2-c]pyrimidine-1,3-dione] | 640 nM | 0.5 µg/mL (≈ 1.34 µM) | 0.015 µg/mL (≈ 0.0402 µM) | 0.06 µg/mL (≈ 0.161 µM) | 0.015 µg/mL (≈ 0.0402 µM) | 0.03 µg/mL (≈ 0.0803 µM) | 0.06 µg/mL (≈ 0.161 µM) | 2.1 mg/kg | 0.13 µg/mL (≈ 0.348 µM) | 0.03 µg/mL (≈ 0.0803 µM) | 0.06 µg/mL (≈ 0.161 µM) | 0.06 µg/mL (≈ 0.161 µM) | – | – | – | – |
| Cc1c(N2CC(C)C(C(C)N)C2)c(F)cn2c(=O)n(N)c(=O)c(C3CC3)c12.Cl (stereo not shown) | – | – | – | – | – | – | – | – | – | – | – | – | 238 to 240 °C | – | – | – |
| Cc1c(N2C[C@H](CN)[C@H](F)C2)c(F)cn2c(=O)n(N)c(=O)c(C3CC3)c12 (racemic) [Compound 4j, 2-Amino-6-((3S,4S) and (3R,4R)-3-aminomethyl-4-fluoropyrrolidin-1-yl)-4-cyclopropyl-7-fluoro-5-methylpyrido[1,2-c]pyrimidine-1,3-dione] | 1500 nM | 2 µg/mL (≈ 5.47 µM) | 0.03 µg/mL (≈ 0.0821 µM) | – | 0.13 µg/mL (≈ 0.356 µM) | 0.25 µg/mL (≈ 0.684 µM) | 0.5 µg/mL (≈ 1.37 µM) | – | – | – | – | – | – | – | – | – |
| Cc1c(N2CC[C@@H]([C@H](C)N)C2)c(F)cn2c(=O)n(N)c(=O)c(C3CC3)c12.Cl [Compound 5b, 2-Amino-6-[(R)-3-((S)-1-aminoethyl)pyrrolidin-1-yl]-4-cyclopropyl-7-fluoro-5-methyl-pyrido[1,2-c]pyrimidine-1,3-dione, hydrochloride] | 500 nM | 0.5 µg/mL | 0.008 µg/mL | 0.25 µg/mL | 0.03 µg/mL | 0.06 µg/mL | 0.13 µg/mL | – | 0.25 µg/mL | 0.13 µg/mL | 0.06 µg/mL | 0.25 µg/mL | 218 to 220 °C | – | – | – |
| Cc1c(N2CC(C(C)N)C(C)(C)C2)c(F)cn2c(=O)n(N)c(=O)c(C3CC3)c12 (stereo not shown) (as salt: hydrochloride) [Compound 5c, 2-Amino-6-[4-(1-amino-ethyl)-3,3-dimethylpyrrolidin-1-yl]-4-cyclopropropyl-7-fluoro-5-methyl-pyrido[1,2-c]pyrimidine-1,3-dione, hydrochloride] | – | – | – | – | – | – | – | – | – | – | – | – | 238 to 240 °C | – | – | – |
| Cc1c(N2CCC(C(C)O)C2)c(F)cn2c(=O)n(N)c(=O)c(C3CC3)c12 (stereo not shown) [Compound 4h] | 1200 nM | 16 µg/mL (≈ 44.1 µM) | 2 µg/mL (≈ 5.52 µM) | 0.5 µg/mL (≈ 1.38 µM) | < 0.06 µg/mL | 0.13 µg/mL (≈ 0.359 µM) | 2 µg/mL (≈ 5.52 µM) | – | – | – | 0.5 µg/mL (≈ 1.38 µM) | 1 µg/mL (≈ 2.76 µM) | 172 to 174 °C | – | – | – |
| Cc1c(N2CCCC2)c(F)cn2c(=O)n(N)c(=O)c(C3CC3)c12 [Compound 4g, 2-Amino-4-cyclopropyl-7-fluoro-5-methyl-6-pyrrolidin-1-yl-pyrido[1,2-c]pyrimidine-1,3-dione] | 1700 nM | 16 µg/mL (≈ 50.3 µM) | 1 µg/mL (≈ 3.14 µM) | 1 µg/mL (≈ 3.14 µM) | < 0.06 µg/mL | 0.25 µg/mL (≈ 0.785 µM) | 2 µg/mL (≈ 6.28 µM) | – | – | – | – | – | 202 to 204 °C | – | – | – |
| Cc1c(N2CC[C@@H]([C@@H](C)N)C2)c(F)cn2c(=O)n(N)c(=O)c(C3CC3)c12.Cl | – | – | – | – | – | – | – | – | – | – | – | – | 218 to 221 °C | – | – | – |
| O=C(O)c1cn(C2CC2)c2cc(N3CCNCC3)c(F)cc2c1=O [Ciprofloxacin, ciprofloxacin, reference compound] | – | < 0.02 µg/mL | 0.5 µg/mL (≈ 1.51 µM) | 0.5 µg/mL (≈ 1.51 µM) | < 0.01 µg/mL | < 0.01 µg/mL | 0.5 µg/mL (≈ 1.51 µM) | >100 mg/kg | 0.06 µg/mL (≈ 0.181 µM) | – | – | – | – | 0.002 µg/mL (≈ 0.00604 µM) | 0.13 µg/mL (≈ 0.392 µM) | 2 µg/mL (≈ 6.04 µM) |
| Cc1c(N2CCC(N)C2)c(F)cn2c(=O)n(N)c(=O)c(C3CC3)c12.Cl (stereo not shown) | – | – | – | – | – | – | – | – | – | – | – | – | 246 to 248 °C | – | – | – |
